Assay results published in patent US9505762B2, “Purine derivatives as CB2 receptor agonists” (Hoffmann-La Roche Inc., priority 2013, dated 2016).

target: human CB2 receptors (Homo sapiens (Human), UniProt P34972); assay: functional cAMP assay, CB2; format: cell-based; settings: CHO cells expressing human CB2
Experimental: (§1) The growth medium was exchanged with Krebs Ringer Bicarbonate buffer with 1 mM IBMX and incubated at 30° C. for 30 min. Compounds were added to a final assay volume of 100 μl and incubated for 30 min at 30° C. Using the cAMP-Nano-TRF detection kit the assay (Roche Diagnostics) was stopped by the addition of 50 μl lysis reagent (Tris, NaCl, 1.5% Triton X100, 2.5% NP40, 10% NaN3) and 50 μl detection solutions (20 μM mAb Alexa700-cAMP 1:1, and 48 μM Ruthenium-2-AHA-cAMP) and shaken for 2 h at room temperature. The time-resolved energy transfer is measured by a TRF reader (Evotec Technologies GmbH), equipped with a ND:YAG laser as excitation source. The plate is measured twice with the excitation at 355 nm and at the emission with a delay of 100 ns and a gate of 100 ns, total exposure time 10 s at 730 (bandwidth 30 nm) or 645 nm (bandwidth 75 nm), respectively.
(§2) EC50 values were determined using Activity Base analysis (ID Business Solution, Limited).

Sequence of human CB2 receptors (P34972 whole entry): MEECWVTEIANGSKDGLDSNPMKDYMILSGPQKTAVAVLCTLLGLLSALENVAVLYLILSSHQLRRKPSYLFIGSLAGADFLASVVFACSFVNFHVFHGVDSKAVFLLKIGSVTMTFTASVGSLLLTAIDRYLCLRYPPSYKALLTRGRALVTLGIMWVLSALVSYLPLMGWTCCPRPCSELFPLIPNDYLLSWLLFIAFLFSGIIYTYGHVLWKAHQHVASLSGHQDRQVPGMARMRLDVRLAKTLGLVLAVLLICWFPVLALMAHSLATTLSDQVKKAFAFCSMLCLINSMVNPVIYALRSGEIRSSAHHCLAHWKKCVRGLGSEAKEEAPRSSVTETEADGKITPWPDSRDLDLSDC

| Structure (SMILES) | EC50 [µM] |
| --- | --- |
| CC(C)(C)c1nc(N2CCC(F)(F)C2)c2ncn(Cc3ccc(Cl)cc3)c2n1 [Example 1, 2-Tert-Butyl-9-[(4-Chlorophenyl)Methyl]-6-(3,3-Difluoropyrrolidin-1-Yl)Purine] | 0.0116 |
| CC(C)(C)c1nc(N2CCC(F)(F)C2)c2ncn(Cc3ccccc3Cl)c2n1 [Example 2, 2-tert-butyl-9-[(2-chlorophenyl)methyl]-6-(3,3-difluoropyrrolidin-1-yl)purine] | 0.0006 |
| CC(C)(C)c1nc(N2CCC(F)(F)C2)c2ncn(Cc3ccc(F)cc3Cl)c2n1 [Example 4, 2-tert-butyl-9-[(2-chloro-4-fluorophenyl)methyl]-6-(3,3-difluoropyrrolidin-1-yl)purine] | 0.0031 |
| CC(C)(C)c1nc(N2CCC(F)(F)C2)c2ncn(Cc3ccccc3C(F)(F)F)c2n1 [Example 5, 2-tert-butyl-6-(3,3-difluoropyrrolidin-1-yl)-9-[[2-(trifluoromethyl)phenyl]methyl]purine] | 0.0007 |
| CC(C)(C)c1nc(N2CCC(F)(F)C2)c2ncn(Cc3cccnc3Cl)c2n1 [Example 6, 2-tert-butyl-9-[(2-chloropyridin-3-yl)methyl]-6-(3,3-difluoropyrrolidin-1-yl)purine] | 0.0005 |
| Cc1noc(Cn2cnc3c(N4CCC(F)(F)C4)nc(C(C)(C)C)nc32)n1 [Example 7, 5-[[2-tert-butyl-6-(3,3-difluoropyrrolidin-1-yl)purin-9-yl]methyl]-3-methyl-1,2,4-oxadiazole] | 0.0347 |
| CC(C)(C)c1nc(N2CCC(F)(F)C2)c2ncn(CCc3ccccc3)c2n1 [Example 13, 2-tert-butyl-6-(3,3-difluoropyrrolidin-1-yl)-9-(2-phenylethyl)purine] | 0.0054 |
| CC(C)(C)c1nc(N2CCC(F)(F)C2)c2ncn(Cc3c[nH]nc3C(F)(F)F)c2n1 [Example 41, 2-tert-butyl-6-(3,3-difluoropyrrolidin-1-yl)-9-[[3-(trifluoromethyl)-1H-pyrazol-4-yl]methyl]purine] | 0.0092 |

target: human CB1 receptors (Homo sapiens (Human), UniProt P21554); assay: functional cAMP assay, CB1; format: cell-based; settings: CHO cells expressing human CB1
Sequence (P21554 whole entry): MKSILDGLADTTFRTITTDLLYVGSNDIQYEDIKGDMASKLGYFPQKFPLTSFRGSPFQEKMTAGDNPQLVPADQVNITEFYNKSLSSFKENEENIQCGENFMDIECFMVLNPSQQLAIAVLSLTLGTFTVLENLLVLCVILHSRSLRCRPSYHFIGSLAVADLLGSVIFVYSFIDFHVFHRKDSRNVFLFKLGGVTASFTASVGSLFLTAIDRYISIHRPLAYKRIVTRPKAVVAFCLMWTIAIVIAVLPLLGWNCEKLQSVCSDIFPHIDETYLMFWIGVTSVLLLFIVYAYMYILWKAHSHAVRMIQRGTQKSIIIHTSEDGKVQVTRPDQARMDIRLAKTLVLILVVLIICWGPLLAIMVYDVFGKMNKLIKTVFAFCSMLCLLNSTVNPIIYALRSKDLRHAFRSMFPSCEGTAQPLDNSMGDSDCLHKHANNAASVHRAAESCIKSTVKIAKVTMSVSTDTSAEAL
Experimental: as §1, §2

| Structure (SMILES) | EC50 [µM] |
| --- | --- |
| CC(C)(C)c1nc(N2CCC(F)(F)C2)c2ncn(Cc3ccc(Cl)cc3)c2n1 [Example 1, 2-Tert-Butyl-9-[(4-Chlorophenyl)Methyl]-6-(3,3-Difluoropyrrolidin-1-Yl)Purine] | > 10 |
| Cc1ccc(Cn2cnc3c(N4CCC(F)(F)C4)nc(C(C)(C)C)nc32)cc1 [Example 3, 2-tert-butyl-6-(3,3-difluoropyrrolidin-1-yl)-9-[(4-methylphenyl)methyl]purine] | > 10 |
| CC(C)(C)c1nc(N2CCC(F)(F)C2)c2ncn(Cc3ccc(F)cc3Cl)c2n1 [Example 4, 2-tert-butyl-9-[(2-chloro-4-fluorophenyl)methyl]-6-(3,3-difluoropyrrolidin-1-yl)purine] | > 10 |
| Cc1noc(Cn2cnc3c(N4CCC(F)(F)C4)nc(C(C)(C)C)nc32)n1 [Example 7, 5-[[2-tert-butyl-6-(3,3-difluoropyrrolidin-1-yl)purin-9-yl]methyl]-3-methyl-1,2,4-oxadiazole] | > 10 |
| CCCn1cnc2c(N3CCC(F)(F)C3)nc(C(C)(C)C)nc21 [Example 10, 2-tert-butyl-6-(3,3-difluoropyrrolidin-1-yl)-9-propylpurine] | > 10 |
| COCCn1cnc2c(N3CCC(F)(F)C3)nc(C(C)(C)C)nc21 [Example 15, 2-tert-butyl-6-(3,3-difluoropyrrolidin-1-yl)-9-(2-methoxyethyl)purine] | > 10 |
| CC(C)(C)c1nc(N2CCC(F)(F)C2)c2ncn(CCC(F)(F)F)c2n1 [Example 19, 2-tert-butyl-6-(3,3-difluoropyrrolidin-1-yl)-9-(3,3,3-trifluoropropyl)purine] | > 10 |
| CC(C)(C)c1nc(N2CCC(O)C2)c2ncn(Cc3ccc(Cl)cc3)c2n1 (centres unmarked) [Example 26, 1-[2-tert-butyl-9-[(4-chlorophenyl)methyl]purin-6-yl]pyrrolidin-3-ol] | > 10 |
| CCCn1cnc2c(N3CCC(O)C3)nc(C(C)(C)C)nc21 (centres unmarked) [Example 36, 1-(2-tert-butyl-9-propylpurin-6-yl)pyrrolidin-3-ol] | > 10 |
| CC(=O)N[C@H]1CCN(c2nc(C(C)(C)C)nc3c2ncn3Cc2ccccc2Cl)C1 [Example 48, N—{(S)-1-[2-tert-Butyl-9-(2-chloro-benzyl)-9H-purin-6-yl]-pyrrolidin-3-yl}-acetamide] | > 10 |
| CC(=O)N[C@H]1CCN(c2nc(C(C)(C)C)nc3c2ncn3Cc2nonc2C)C1 [Example 55, N—[(S)-1-[2-tert-butyl-9-[(4-methyl-1,2,5-oxadiazol-3-yl)methyl]purin-6-yl]pyrrolidin-3-yl]acetamide] | > 10 |
| CC1(O)CCN(c2nc(C(C)(C)C)nc3c2ncn3Cc2ccc(Cl)cc2)C1 (centres unmarked) [Example 66, 1-[2-tert-butyl-9-[(4-chlorophenyl)methyl]purin-6-yl]-3-methylpyrrolidin-3-ol] | > 10 |
| Cc1nonc1Cn1cnc2c(N3CCC(C)(O)C3)nc(C(C)(C)C)nc21 (centres unmarked) [Example 70, 1-[2-tert-butyl-9-[(4-methyl-1,2,5-oxadiazol-3-yl)methyl]purin-6-yl]-3-methylpyrrolidin-3-ol] | > 10 |
| COCCn1cnc2c(N3CCC(C)(O)C3)nc(C(C)(C)C)nc21 (centres unmarked) [Example 71, 1-[2-tert-butyl-9-(2-methoxyethyl)purin-6-yl]-3-methylpyrrolidin-3-ol] | > 10 |
| CC(C)(C)c1nc(N2CC(F)(F)C(F)(F)C2)c2ncn(Cc3ccccc3Cl)c2n1 [Example 72, 2-tert-butyl-9-[(2-chlorophenyl)methyl]-6-(3,3,4,4-tetrafluoropyrrolidin-1-yl)purine] | > 10 |
| Cc1nonc1Cn1cnc2c(N3CC(F)(F)C(F)(F)C3)nc(C(C)(C)C)nc21 [Example 82, 3-[[2-tert-butyl-6-(3,3,4,4-tetrafluoropyrrolidin-1-yl)purin-9-yl]methyl]-4-methyl-1,2,5-oxadiazole] | > 10 |
| CC(C)(C)c1nc(N2CC[C@H](O)C2)c2ncn(Cc3ccc(Cl)cc3)c2n1 [Example 88, (3S)-1-[2-tert-butyl-9-[(4-chlorophenyl)methyl]purin-6-yl]pyrrolidin-3-ol] | > 10 |
| Cc1nnc(Cn2cnc3c(N4CCC(F)(F)C4)nc(NC(C)(C)C)nc32)o1 [Example 109, N-tert-butyl-6-(3,3-difluoropyrrolidin-1-yl)-9-[(5-methyl-1,3,4-oxadiazol-2-yl)methyl]purin-2-amine] | > 10 |
| CC(C)(C)Nc1nc(N2CC[C@H](O)C2)c2ncn(Cc3c[nH]nc3C(F)(F)F)c2n1 [Example 122, (3S)-1-[2-(tert-butylamino)-9-[[3-(trifluoromethyl)-1H-pyrazol-4-yl]methyl]purin-6-yl]pyrrolidin-3-ol] | > 10 |
| CC(C)(C)Nc1nc(N2CC3(COC3)C2)c2ncn(Cc3ccccc3C(F)(F)F)c2n1 [Example 137, N-tert-butyl-6-(2-oxa-6-azaspiro[3.3]heptan-6-yl)-9-[[2-(trifluoromethyl)phenyl]methyl]purin-2-amine] | > 10 |
| Cc1nonc1Cn1cnc2c(N3CCN(C)CC3)nc(C(C)(C)C)nc21 [Example 144, 3-[[2-tert-butyl-6-(4-methylpiperazin-1-yl)purin-9-yl]methyl]-4-methyl-1,2,5-oxadiazole] | > 10 |
| CC(C)(C)c1nc(N2CCC[C@@H]2CO)c2ncn(Cc3nnnn3C3CC3)c2n1 [Example 146, [(2R)-1-[2-tert-butyl-9-[(1-cyclopropyltetrazol-5-yl)methyl]purin-6-yl]pyrrolidin-2-yl]methanol] | > 10 |
| CC(C)(C)c1nc(N2CC(F)(F)C2)c2ncn(Cc3ncccc3Cl)c2n1 [Example 160, 2-tert-butyl-9-[(3-chloropyridin-2-yl)methyl]-6-(3,3-difluoroazetidin-1-yl)purine] | > 10 |
| CC(C)(C)c1nc(N2CC[C@H](O)C2)c2ncn(Cc3nnnn3C(C)(C)C)c2n1 [Example 166, (3S)-1-[2-tert-butyl-9-[(1-tert-butyltetrazol-5-yl)methyl]purin-6-yl]pyrrolidin-3-ol] | > 10 |
